According to patent US20240279184A1, “HETEROAROMATIC ANALOGUES OF 3-BENZYLMENADIONE DERIVATIVES AND PROCESSES FOR THEIR PREPARATION” (CENTRE NATIONAL DE LA RECHERCHE SCIENTIFIQUE, priority 2021, published 2024):

Experiments:
[1] = test system: Plasmodium falciparum NF54 strain; assay: primary screening of antimalarial activity, Plasmodium falciparum NF54 strain; format: cell-based; conditions: for antimalarial activity compared with the regioisomer (potency and specificity): NF54 strain versus rat L6 myoblasts, MR00418 vs MR00397, MR00419 vs MR00407; for IC50: Plasmodium falciparum NF54 strain, first primary screening
[2] = test system: rat L6 myoblast cell line; assay: primary screening on the rat L6 myoblast cell line (specificity/cytotoxicity); format: cell-based; conditions: first primary screening

IC50 [1]	Compound	antimalarial activity compared with the regioisomer (potency and specificity) [1]	IC50 [2]
0.006 µM	CC1=C(Cc2ccc(C(F)(F)F)nc2)C(=O)c2ccccc2C1=O [MRO0418, 2-methyl-3-((6-(trifluoromethyl)pyridin-3-yl)methyl) naphthalene-1,4-dione]	more potent and specific antimalarial activities than the regioisomers	179 µM
0.065 µM	CC1=C(Cc2cnc(C(F)(F)F)nc2)C(=O)c2ccccc2C1=O [MRO0419, 2-methyl-3-((2-(trifluoromethyl)pyrimidin-5-yl)methyl) naphthalene-1,4-dione]	more potent and specific antimalarial activities than the regioisomers	48.3 µM
